{"source": "patent US12048761B2", "about": "“Methods and pharmaceutical compositions for the treatment of retinal capillary non-perfusion” (INSERM (INSTITUT NATIONAL DE LA SANTÉ ET DE LA RECHERCHE …, priority 2015, dated 2024)", "key": {"ROCK [1]": {"tested_on": "ROCK", "test": "ROCK Activity Immunoblot Kit: phosphorylation of recombinant MYPT1 by RPE/choroid samples of treated GK rats", "format": "in vivo, rat", "conditions": "GK diabetic rats, 3 intravitreous injections of 20 μM, vs vehicle", "description": "We used a ROCK Activity Immunoblot Kit (Cell Biolabs, San Diego, CA, USA) that utilizes recombinant MYPT1 as a ROCK substrate. ROCK inactivates myosin phosphatase through a specific phosphorylation of myosin phosphatase target subunit 1 (MYPT1) at Thr696, which results in an increase in the phosphorylated content of the 20-kDa myosin light chain. (MLC20) After incubating the substrate (recombinant MYPT1) with RPE/choroid samples, the phosphorylated MYPT1 was detected by western blot analysis using an anti-phospho-MYPT1 (Thr696). In brief, RPE/choroid protein samples were diluted in 1× Kinase buffer. 25 μL (75 μg of proteins) was added in microcentrifuge tubes and the initiation of kinase reaction was performed by adding 50 μL of 1× Kinase/ATP/Substrate Solution. The microcentrifuge tubes were then incubated at 30° C. for 30-60 minutes with gentle agitation. Then the kinase reaction was stopped by adding 25 μL of 4× reducing SDS-PAGE sample buffer. […] Inhibition of ROCK activity was evaluated by western blotting and quantified."}, "ROCK-1": {"tested_on": "ROCK-1", "test": "Western blotting of ROCK1 protein level in RPE", "format": "in vivo, rat", "conditions": "GK diabetic rats, 3 intravitreous injections of 20 μM, vs vehicle injected eyes, n=6", "description": "(§2) For intravitreous injections, diabetic rats were anesthetized with an intraperitoneal injection of pentobarbital (40 mg/kg Nembutal, Abbot, Saint-Remy sur Avre, France) and pupils were dilated with a topically applied drop of 5% tropicamide (Ciba Vision, Toulouse, France), and locally anesthetized with a drop of 1% tetracaine (Ciba Vision). Three consecutive injections, of Fasudil at a concentration of 20 M or vehicle were performed, at 48 hours interval under a surgical microscope, using a 30-gauge needle (Microfine: Becton Dickinson, Meylan, France as described previously [29-31]). Animals were sacrificed 48 hours following the administration of 3 intra-vitreous injections of 20 μM of Fasudil, each injection was 2 days apart.\nRPE/choroid and neural retina were homogenized in a lysis buffer (50 mM Mops, 50 mM Trisbase, 0.1%, SDS 1 mM EDTA PH 7.7) containing a protease inhibitor cocktail (Roche, France). Protein concentration was determined using a (Pierce BCA protein assay kit Thermo Scientific Rockford USA) (20-40 μg) were subjected to SDS-PAGE on Nupage 4-12% Bis-Tris gel electrophoresis, and electroblotted onto nitrocellulose membranes (Optitran BA-S 83 GE Healthcare Life Science Whatman). Membranes were incubated with primary antibodies."}, "p-MLC": {"tested_on": "p-MLC", "test": "Western blotting of p-MLC protein level in RPE", "format": "in vivo, rat", "conditions": "GK diabetic rats, 3 intravitreous injections of 20 μM, vs vehicle", "procedure": "(§1) For intravitreous injections, diabetic rats were anesthetized with an intraperitoneal injection of pentobarbital (40 mg/kg Nembutal, Abbot, Saint-Remy sur Avre, France) and pupils were dilated with a topically applied drop of 5% tropicamide (Ciba Vision, Toulouse, France), and locally anesthetized with a drop of 1% tetracaine (Ciba Vision). Three consecutive injections, of Fasudil at a concentration of 20 µM or vehicle were performed, at 48 hours interval under a surgical microscope, using a 30-gauge needle (Microfine: Becton Dickinson, Meylan, France as described previously). […] Protein concentration was determined using a (Pierce BCA protein assay kit Thermo Scientific Rockford USA) (20-40 μg) were subjected to SDS-PAGE on Nupage 4-12% Bis-Tris gel electrophoresis, and electroblotted onto nitrocellulose membranes (Optitran BA-S 83 GE Healthcare Life Science Whatman). […] Then, membranes were incubated with the corresponding peroxidase-conjugated F(ab)2 fragment (Santa cruz Biotechnology Inc, Santa Cruz, CA, USA (dilution 1:5000) secondary antibodies. Immunoreactive bands were detected with the ECL Western blotting Detection Reagents Kit (Thermo Scientific Rockford USA). The relative abundance of individual proteins identified was quantified by scanning densitometry. The list of antibodies used for western-blots are provided in Table 2."}, "ROCK1/P-MLC": {"tested_on": "ROCK1/P-MLC", "test": "Immunolocalization of ROCK1 and P-MLC on RPE cell flatmounts", "format": "in vivo, rat", "conditions": "GK diabetic rats, 3 intravitreous injections of 20 μM", "description": "as §2\nFor flatmounts, after enucleation, ocular globes were fixed in 4% paraformaldehyde (PFA) for 15 min at room temperature and sectioned at the limbus; anterior segments were discarded. Neural retinas and RPE/choroids were fixed separately for additional 15 min in acetone at −20° C. Specimens were then incubated overnight at 4° C. with primary antibodies diluted in PBS supplemented with 10% foetal calf serum (FCS) and 0.1% Triton X-100. Immunohistochemistry was repeated at least 7 times on 7 different animals for each group."}, "RPE cells": {"tested_on": "RPE cells", "test": "Quantitative analysis of RPE cell layer morphology on RPE flat-mounts", "format": "in vivo, rat", "conditions": "Fasudil vs vehicle", "procedure": "For intravitreous injections, diabetic rats were anesthetized with an intraperitoneal injection of pentobarbital (40 mg/kg Nembutal, Abbot, Saint-Remy sur Avre, France) and pupils were dilated with a topically applied drop of 5% tropicamide (Ciba Vision, Toulouse, France), and locally anesthetized with a drop of 1% tetracaine (Ciba Vision). Three consecutive injections, of Fasudil at a concentration of 20 µM or vehicle were performed, at 48 hours interval under a surgical microscope, using a 30-gauge needle (Microfine: Becton Dickinson, Meylan, France as described previously). Animals were sacrificed 48 hours following the administration of 3 intra-vitreous injections of 20 μM of Fasudil, each injection was 2 days apart. To analyse RPE flat-mounts and in order to assess the cell morphology. an ImageJ [32] macro tool was created in Fiji. Briefly, after a first image processing by FFT band pass filtering, images were converted into binary format and masked and then processed to obtain a skeleton image (isolated segments and loops were removed). This image was inverted and the cells segmented and labelled with the “particle analysis” tool in ImageJ, the Regions of Interest (ROI) were delimited using ROI Manager tool. The number of vertices for each cell was measured following detection of triple points (points were three branches are joined together) with the appropriate binary “hit or miss” transformation. For this transformation, the ImageJ plugin “morphology” was used. By removing those points from the skeleton image, the number of individual edges was counted as well as their length. The number of vertices was then verified and manually corrected for errors. Images with more than 5% automatic alignment errors were eliminated from analysis. Following this several morphological parameters were then measured for each cell e.g. area, perimeter, circularity, number of neighbours/vertices/edges of a cell etc. […]"}, "[2]": {"tested_on": "outer retinal barrier (RPE)", "test": "Blood-retinal barrier breakdown using intravenous injection of 150 KDa FITC-dextran", "format": "in vivo, rat", "procedure": "For intravitreous injections, diabetic rats were anesthetized with an intraperitoneal injection of pentobarbital (40 mg/kg Nembutal, Abbot, Saint-Remy sur Avre, France) and pupils were dilated with a topically applied drop of 5% tropicamide (Ciba Vision, Toulouse, France), and locally anesthetized with a drop of 1% tetracaine (Ciba Vision). Three consecutive injections, of Fasudil at a concentration of 20 µM or vehicle were performed, at 48 hours interval under a surgical microscope, using a 30-gauge needle (Microfine: Becton Dickinson, Meylan, France as described previously). Animals were sacrificed 48 hours following the administration of 3 intra-vitreous injections of 20 μM of Fasudil, each injection was 2 days apart. To assess blood retinal barrier breakdown, 200 μl of 150 KDa FITC-dextran at 50 mg/ml in PBS (Sigma) was injected intravenously in the tail of rats treated by Fasudil or vehicle (n=5), 2 hours prior killing. Leakage of FITC-dextran was evaluated by measuring fluorescence within the retina using imageJ software as previously described by others. Cryosections (10 μm) of Fasudil and vehicles injected rats retina were randomly imaged (10 images at 40× magnification per animal) and analysed."}, "[3]": {"tested_on": "retinal capillary network", "test": "Quantitative assessment of the retinal microangiopathy: lectin-labelled capillary surface on flat-mounted retina", "format": "in vivo, rat", "conditions": "GK rats, n=4 Fasudil and n=5 vehicle, p<0.05", "procedure": "For intravitreous injections, diabetic rats were anesthetized with an intraperitoneal injection of pentobarbital (40 mg/kg Nembutal, Abbot, Saint-Remy sur Avre, France) and pupils were dilated with a topically applied drop of 5% tropicamide (Ciba Vision, Toulouse, France), and locally anesthetized with a drop of 1% tetracaine (Ciba Vision). Three consecutive injections, of Fasudil at a concentration of 20 µM or vehicle were performed, at 48 hours interval under a surgical microscope, using a 30-gauge needle (Microfine: Becton Dickinson, Meylan, France as described previously). Animals were sacrificed 48 hours following the administration of 3 intra-vitreous injections of 20 μM of Fasudil, each injection was 2 days apart. To quantify the area of large and small blood vessels on flat mounted retina, an ImageJ macro was created in Fiji. Briefly, the local thickness function available with the Fiji plugin for ImageJ software was used to create a map of the blood vessels, from which diameter of the local structures could be evaluated. This map was thresholded to define two binary masks corresponding to the vessels of large diameter (local thickness>threshold) and the vessels of small diameter (local thickness<threshold). The area of those masks was then measured and expressed in terms of the surface area occupied by the small vessels."}, "VEGF": {"tested_on": "VEGF", "test": "VEGF western blot in neural retina and VEGF immunostaining on retinal flatmounts", "format": "in vivo, rat", "conditions": "GK rats, Fasudil vs vehicle, n=8/group, western blot (VEGF-164, neural retina)", "procedure": "as §1"}, "retinal vessels": {"tested_on": "retinal vessels", "test": "In vivo imaging of retinal vessels using confocal angiography", "set-up": "species or system rat", "conditions": "GK rats, intravitreal fasudil, p<0.05", "procedure": "For intravitreous injections, diabetic rats were anesthetized with an intraperitoneal injection of pentobarbital (40 mg/kg Nembutal, Abbot, Saint-Remy sur Avre, France) and pupils were dilated with a topically applied drop of 5% tropicamide (Ciba Vision, Toulouse, France), and locally anesthetized with a drop of 1% tetracaine (Ciba Vision). Three consecutive injections, of Fasudil at a concentration of 20 µM or vehicle were performed, at 48 hours interval under a surgical microscope, using a 30-gauge needle (Microfine: Becton Dickinson, Meylan, France as described previously). Animals were sacrificed 48 hours following the administration of 3 intra-vitreous injections of 20 μM of Fasudil, each injection was 2 days apart."}, "ROCK [4]": {"tested_on": "ROCK", "conditions": "cited from earlier work"}}, "note": "Entries after “also recorded” stand apart in the source; their conditions may differ.", "data": [{"smiles": "O=S(=O)(c1cccc2cnccc12)N1CCCNCC1", "note": "[Fasudil, hexahydro-1-(5-isoquinolylsulfonyl)-1H-1,4-di-azepime]", "values": [{"measurement": "phosphorylated MYTP1 in the RPE (ROCK-1 activity)", "setting": "ROCK [1]", "result": "significant reduction"}, {"measurement": "total ROCK-1 in the RPE", "setting": "ROCK-1", "result": "not significantly decreased"}, {"measurement": "phosphorylated MLC in the RPE", "setting": "p-MLC", "result": "significant reduction"}, {"measurement": "localization of ROCK1/P-MLC in RPE cells", "setting": "ROCK1/P-MLC", "result": "relocation of ROCK1/P-MLC from the membrane into the cytoplasm"}, {"measurement": "frequency of normal size RPE cells", "setting": "RPE cells; GK retina, p<0.001", "result": "increase frequency of normal size cells"}, {"measurement": "frequency of small RPE cells (<200 μm2)", "setting": "RPE cells; GK retina, p<0.001", "result": "significantly less small cells; also recorded: reduction in the frequency of small cells"}, {"measurement": "distribution of RPE cell area", "setting": "RPE cells; WS (non-diabetic Wistar) retina, ANOVA p=0.17", "result": "no difference in distribution of cell area"}, {"measurement": "RPE barrier on histological sections", "setting": "[2]; GK eyes, Fasudil treated", "result": "intact RPE barrier"}, {"measurement": "vessel leakage (neural retina corrected total fluorescence)", "setting": "[2]; GK eyes, Fasudil vs vehicle, n=5-6, p<0.01", "result": "significant reduction in vessel leakage"}, {"measurement": "passage of 150 KDa FITC-dextran across the RPE barrier", "setting": "[2]; GK rats, 2 hours after intravenous FITC-dextran, qualitative on cryosections", "result": "did not cross the RPE barrier"}, {"measurement": "capillary density (% of surface coverage by small vessels)", "setting": "[3]", "result": "significantly increased"}, {"measurement": "VEGF levels in retina", "setting": "VEGF", "result": "significant decrease"}, {"measurement": "vasodilation of retinal vessels (vascular diameter before and after treatment)", "setting": "retinal vessels", "result": "significant effect of fasudil on retinal vessel diameter; also recorded: significant vasodilation"}]}, {"smiles": "O=c1[nH]ccc2c(S(=O)(=O)N3CCCNCC3)cccc12", "note": "[Hydroxyfasudil]", "values": [{"measurement": "affinity to ROCK relative to Fasudil", "setting": "ROCK [4]", "result": "higher affinity"}]}]}
